Source: patent EP1180991B1, “GAMBOGIC ACID DERIVATIVES AS ACTIVATORS OF CASPASES AND INDUCERS OF APOPTOSIS” (Cytovia, Inc., priority 1999, dated 2000)

What was measured:
KB = conditions: Lin et al. 1993; cited from earlier work
SHP-77 = experiment: Caspase activity with and without caspase inhibitor (Example 97); assay type: cell-based, human; parameters: key to Inhibition of caspase activity by Inhibitor: The caspase activity detected was inhibited by the caspase inhibitor (+)
Procedure: (§1) T47D, ZR-75, PC3, SHP-77 and A-549 cells were maintained and harvested as described in Example 90. Cells were added to 96-well plates as described in Example 90. The cells were treated with 10 µM gambogic acid, in the presence and in the absence of 10 µM caspase inhibitor cbz-Val-Asp-fink (Cytovia, Inc.; WO99/18781). The plate was incubated up to 24 h at 37° C in a 5% CO2-95% humidity incubator. Caspase activity was determined by addition of a fluorogenic substrate as described in Example 90.
(§2) Gambogic acid induced caspase activity in a ratio of greater than 2.5 (+) above untreated cell levels in all the tested cancer cell lines (Table IV). The caspase activity detected was inhibited by the caspase inhibitor (+), confirming that the fluorescent signal was due to caspase activity. Table IV. Gambogic Acid as Caspase Inducers in Solid Tumor Cells

PC-3 = experiment: as above; assay type: cell-based, human; parameters: key to Inhibition of caspase activity by Inhibitor: The caspase activity detected was inhibited by the caspase inhibitor (+)
Procedure: as §1, §2

ZR-75 = experiment: as above; assay type: cell-based, human; parameters: key to Inhibition of caspase activity by Inhibitor: The caspase activity detected was inhibited by the caspase inhibitor (+)
Procedure: as §1, §2

A-549 = experiment: as above; assay type: cell-based, human; parameters: key to Inhibition of caspase activity by Inhibitor: The caspase activity detected was inhibited by the caspase inhibitor (+)
Procedure: as §1, §2

T47D = experiment: as above; assay type: cell-based, human; parameters: key to Inhibition of caspase activity by Inhibitor: The caspase activity detected was inhibited by the caspase inhibitor (+)
Procedure: as §1, §2

HEL cells = conditions: Asano et al. 1996; cited from earlier work
[1] = 10 µM plus 10 µM caspase inhibitor cbz-Val-Asp-fink
[2] = Homo sapiens, 10 µM, up to 24 h

SMILES: CC(C)=CCC[C@]1(C)C=Cc2c(O)c3c(c(CC=C(C)C)c2O1)O[C@]12C(=C[C@@H]4C[C@H]1C(C)(C)O[C@@]2(C/C=C(/C)C(=O)O)C4=O)C3=O [Example 1, Gambogic Acid]
- cytotoxicity (KB): cytotoxic
- Inhibition of caspase activity by Inhibitor (SHP-77; [1]): +
- fold induction at 10 µM (SHP-77; Homo sapiens, SHP77, 10 µM, up to 24 h): > 2.5
- Inhibition of caspase activity by Inhibitor (PC-3; [1]): +
- fold induction at 10 µM (PC-3; [2]): > 2.5
- Inhibition of caspase activity by Inhibitor (ZR-75; [1]): +
- fold induction at 10 µM (ZR-75; Homo sapiens, ZR75, 10 µM, up to 24 h): > 2.5
- Inhibition of caspase activity by Inhibitor (A-549; [1]): +
- fold induction at 10 µM (A-549; Homo sapiens, A549, 10 µM, up to 24 h): > 2.5
- Inhibition of caspase activity by Inhibitor (T47D; [1]): +
- fold induction at 10 µM (T47D; [2]): > 2.5
- cytotoxicity (HEL cells): cytotoxic
